Source: ChEMBL document CHEMBL1201862, “PubChem BioAssay data set” (2004)
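Five concentrations, 48 hours, 96-well plates. GI50 = concentration required for 50% inhibition of growth.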 The source made the active and inactive calls. Cut-off read from the data, not from the text of the source: active = GI50 up to about 1.1 µM and inactive = higher.

Columns and labels:
Test in all cases: NCI-60 cell line screen, 48 h
SK-OV-3 = tested on: SK-OV-3
UO-31 = tested on: UO-31
SNB-75 = tested on: SNB-75
PC-3 = tested on: PC-3
MDA-MB-231 = tested on: MDA-MB-231
OVCAR-8 = tested on: OVCAR-8
786-0 = tested on: 786-0
DU-145 = tested on: DU-145
OVCAR-4 = tested on: OVCAR-4
HT-29 = tested on: HT-29
Malme-3M = tested on: Malme-3M
MDA-MB-435 = tested on: MDA-MB-435
HL-60 = tested on: HL-60
SK-MEL-5 = tested on: SK-MEL-5
SF-268 = tested on: SF-268
UACC-257 = tested on: UACC-257
OVCAR-3 = tested on: OVCAR-3
M14 = tested on: M14
NCI-H460 = tested on: NCI-H460
A498 = tested on: A498

Measured: GI50

Cc1c(C(=O)O)sc2nc[nH]c(=O)c12
inactive: SK-OV-3 > 100 µM | UO-31 > 100 µM | SNB-75 49.8 µM | PC-3 > 100 µM | MDA-MB-231 > 100 µM | OVCAR-8 > 100 µM | 786-0 > 100 µM | DU-145 > 100 µM | OVCAR-4 > 100 µM | HT-29 > 100 µM | Malme-3M > 100 µM | MDA-MB-435 > 100 µM | HL-60 > 100 µM | SK-MEL-5 > 100 µM | SF-268 > 100 µM | UACC-257 > 100 µM | OVCAR-3 > 100 µM | M14 > 100 µM | NCI-H460 > 100 µM

CC12CCC(CC1=O)C2(C)CCC(N)=O (stereo not drawn)
inactive: SK-OV-3 > 100 µM | UO-31 > 100 µM | PC-3 > 100 µM | MDA-MB-231 > 100 µM | OVCAR-8 > 100 µM | 786-0 > 100 µM | DU-145 > 100 µM | OVCAR-4 > 100 µM | HT-29 > 100 µM | Malme-3M > 100 µM | MDA-MB-435 > 100 µM | SK-MEL-5 > 100 µM | SF-268 > 100 µM | UACC-257 > 100 µM | OVCAR-3 > 100 µM | M14 > 100 µM | A498 > 100 µM

COC(=O)C(CCCCN)NC(=O)C(CCCCN)NC(=O)C(CCCCN)NC(C)=O.Cc1ccc(C(=O)Nc2ccc(S(=O)(=O)O)c3cc(S(=O)(=O)O)cc(S(=O)(=O)O)c23)cc1NC(=O)c1cccc(NC(=O)Nc2cccc(C(=O)Nc3cc(C(=O)Nc4ccc(S(=O)(=O)O)c5cc(S(=O)(=O)O)cc(S(=O)(=O)O)c45)ccc3C)c2)c1
inactive: SK-OV-3 > 50 µM | UO-31 > 50 µM | SNB-75 10.7 µM | PC-3 > 50 µM | MDA-MB-231 > 50 µM | OVCAR-8 > 50 µM | 786-0 > 50 µM | DU-145 > 50 µM | OVCAR-4 11.3 µM | HT-29 > 50 µM | MDA-MB-435 > 50 µM | HL-60 > 50 µM | SK-MEL-5 > 50 µM | SF-268 43 µM | UACC-257 > 50 µM | OVCAR-3 > 50 µM | M14 > 50 µM | A498 > 50 µM | NCI-H460 48.9 µM

CC1(C2(C)OC(=O)c3ccccc32)OC(=O)c2ccccc21 (stereo not drawn)
inactive: SK-OV-3 > 100 µM | UO-31 > 100 µM | SNB-75 > 100 µM | PC-3 > 100 µM | MDA-MB-231 > 100 µM | OVCAR-8 > 100 µM | 786-0 > 100 µM | DU-145 > 100 µM | OVCAR-4 > 100 µM | HT-29 > 100 µM | MDA-MB-435 > 100 µM | HL-60 > 100 µM | SK-MEL-5 > 100 µM | SF-268 > 100 µM | UACC-257 > 100 µM | OVCAR-3 > 100 µM | M14 > 100 µM | A498 > 100 µM | NCI-H460 > 100 µM

CCOC(=O)c1c(-c2ccc(OC)cc2)c(C#N)c(=S)n(C2OC(COC(C)=O)C(OC(C)=O)C(OC(C)=O)C2OC(C)=O)c1-c1ccccc1 (stereo not drawn)
inactive: SK-OV-3 > 100 µM | UO-31 > 100 µM | SNB-75 60 µM | PC-3 > 100 µM | MDA-MB-231 > 100 µM | 786-0 > 100 µM | DU-145 > 100 µM | OVCAR-4 > 100 µM | HT-29 > 100 µM | Malme-3M > 100 µM | MDA-MB-435 > 100 µM | HL-60 > 100 µM | SK-MEL-5 40.6 µM | SF-268 > 100 µM | UACC-257 > 100 µM | OVCAR-3 > 100 µM | M14 > 100 µM | NCI-H460 > 100 µM

S=C1CCSc2c(ccc3ccccc23)N1
inactive: SK-OV-3 83.9 µM | UO-31 > 100 µM | SNB-75 74.3 µM | PC-3 41 µM | MDA-MB-231 > 100 µM | OVCAR-8 > 100 µM | 786-0 > 100 µM | DU-145 > 100 µM | OVCAR-4 46.7 µM | HT-29 > 100 µM | Malme-3M > 100 µM | MDA-MB-435 > 100 µM | HL-60 33.2 µM | SK-MEL-5 > 100 µM | SF-268 58.6 µM | UACC-257 > 100 µM | OVCAR-3 > 100 µM | M14 > 100 µM | NCI-H460 71.8 µM

COC(=O)C1=C(O)C(C(=O)OC)[C@]2(O)[C@H](C(=O)OC)[C@H]1C[C@@H](c1ccc(OC)c(OC)c1)[C@H]2C(=O)OC (stereo partly drawn)
inactive: SK-OV-3 17.6 µM | UO-31 24.5 µM | SNB-75 7.8 µM | PC-3 25.4 µM | MDA-MB-231 34.2 µM | OVCAR-8 13.3 µM | 786-0 39.8 µM | DU-145 19.9 µM | OVCAR-4 29.6 µM | HT-29 36.9 µM | MDA-MB-435 11.3 µM | HL-60 7.83 µM | SK-MEL-5 13.3 µM | UACC-257 20.5 µM | OVCAR-3 16.5 µM | M14 12.3 µM | A498 18 µM | NCI-H460 14.7 µM

COC(=O)[C@@H](Cc1ccccc1)NNC(=O)OC(C)(C)C
inactive: SK-OV-3 > 100 µM | PC-3 > 100 µM | MDA-MB-231 > 100 µM | OVCAR-8 > 100 µM | 786-0 > 100 µM | DU-145 > 100 µM | OVCAR-4 > 100 µM | Malme-3M > 100 µM | MDA-MB-435 > 100 µM | HL-60 > 100 µM | SK-MEL-5 > 100 µM | SF-268 > 100 µM | UACC-257 > 100 µM | OVCAR-3 > 100 µM | A498 > 100 µM | NCI-H460 > 100 µM

CC(CO)C1=CC(C#CCOCc2ccccc2)N(C(=O)Oc2ccccc2)c2ccccc21 (stereo not drawn)
inactive: SK-OV-3 34.9 µM | UO-31 26.4 µM | SNB-75 22.9 µM | PC-3 14.4 µM | MDA-MB-231 39.6 µM | OVCAR-8 30.5 µM | 786-0 28 µM | DU-145 57.5 µM | OVCAR-4 3.48 µM | HT-29 18.6 µM | MDA-MB-435 15.5 µM | HL-60 26.3 µM | SK-MEL-5 21.4 µM | SF-268 24.9 µM | UACC-257 13.2 µM | OVCAR-3 9.35 µM | M14 17.1 µM | A498 4.59 µM | NCI-H460 18 µM

COC(=O)NCCc1n[nH]c2c1C(=O)C=C(OC)C2=O
inactive: SK-OV-3 > 100 µM | UO-31 24.3 µM | SNB-75 19.2 µM | PC-3 34.9 µM | MDA-MB-231 16.1 µM | OVCAR-8 22 µM | 786-0 19.5 µM | DU-145 52.6 µM | OVCAR-4 19.6 µM | HT-29 42.6 µM | Malme-3M 15.5 µM | MDA-MB-435 14.6 µM | HL-60 16.6 µM | SK-MEL-5 15.5 µM | SF-268 18.5 µM | UACC-257 15 µM | OVCAR-3 17.9 µM | M14 19.7 µM | NCI-H460 > 100 µM
